This is an account of results in ChEMBL document CHEMBL4184293, “Structure-based design and biological evaluation of inhibitors of the pseudomonas aeruginosa heme oxygenase (pa-HemO)” (Bioorg Med Chem Lett, 2018).

Test [1] has as its target T1, Heme oxygenase (Pseudomonas aeruginosa, UniProt O69002).
T1 sequence (O69002 whole entry): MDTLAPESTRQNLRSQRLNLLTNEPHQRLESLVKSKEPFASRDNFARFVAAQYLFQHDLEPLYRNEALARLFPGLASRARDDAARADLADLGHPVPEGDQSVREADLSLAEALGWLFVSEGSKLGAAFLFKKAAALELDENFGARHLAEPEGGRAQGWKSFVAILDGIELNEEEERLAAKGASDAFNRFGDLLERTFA
Briefly: Binding affinity to Pseudomonas aeruginosa HemO by intrinsic fluorescence quenching assay.

The subject of test [2] is Pseudomonas aeruginosa. As to the kind of experiment: Antibacterial activity against Pseudomonas aeruginosa PAO1 after 4 hrs in presence of heme or FeCl3. It is filed as functional.
Test [3] concerns Pseudomonas aeruginosa. Briefly: Antibiofilm activity against Pseudomonas aeruginosa PAO1 after 24 hrs by crystal violet staining based assay. It is filed as functional.
Test [4] has as its target T2, Heme oxygenase (Pseudomonas aeruginosa) (UniProt O69002).
T2 sequence (whole entry): T1 sequence (O69002 whole entry)
As to the kind of experiment: Binding affinity to Pseudomonas aeruginosa HemO assessed as chemical shift perturbations after 2 hrs by 15N-1H TROSY HSQC NMR method.

Test [5] has as its target T2, Heme oxygenase (Pseudomonas aeruginosa). Briefly: Binding affinity to Pseudomonas aeruginosa HemO by STD-NMR method.

The source made the active and inactive calls. The rule behind the calls is not given here.

`O=C(O)CCN1C(=O)/C(=C/c2ccc(Oc3ccccc3)cc2)SC1=S` displayed a Kd in test [1] of 6.5 µM.

As for `O=C1NC(=S)SC1=Cc1ccc(-c2ccccc2)cc1`, the Kd in test [1] was 2.3 µM. Besides, the MIC50 entry in test [2] was “inactive”. The compound also returned an MBEC99.9 in test [3] above 300 µg/mL.

Compound `O=C(O)CCN1C(=O)/C(=C/c2cn(Cc3ccccc3)c3ccccc23)SC1=S` yielded a Kd in test [1] of 7.4 µM.

Compound `O=C1Nc2ccc(Cl)cc2/C1=C\c1ccc(-c2ccccc2)cc1` displayed a Kd in test [1] of 5.2 µM. In addition, the MIC50 entry in test [2] was “inactive”. This compound showed an MBEC99.9 in test [3] above 300 µg/mL.

For the compound `O=C(O)CCN1C(=O)/C(=C/c2ccc(Cl)c(Cl)c2)SC1=S`, the Kd in test [1] was 14 µM.

On to `O=C(O)CCN1C(=O)/C(=C/c2ccc(O)c(O)c2)SC1=S`, for which binding in test [1] was characterised by a dissociation constant (Kd) of 57 µM.

For `O=C(O)CCN1C(=O)C(=Cc2ccc(-c3ccccc3)cc2)SC1=S`, in test [1], the Kd was determined as 3.3 µM. For the same compound, in test [2] (PAO1, 4 h), the MIC50 was above 300 µg/mL. In test [3], this compound gave an MBEC99.9 above 300 µg/mL. Also, the result in test [4] was Active.

For `O=C(O)CCN1C(=O)/C(=C/c2c[nH]c3ccccc23)SC1=S`, the equilibrium dissociation constant (Kd) in test [1] was 6.4 µM.

With `O=C(O)CCN1C(=O)C(=Cc2cccc3ccccc23)SC1=S`, the dissociation constant (Kd) in test [1] came out at 13 µM.

In test [1], `O=C(O)CCN1C(=O)C(=Cc2ccc3ccccc3c2)SC1=S` yielded a Kd of 3.9 µM.

Take `CC(C)c1ccc(/C=C2\SC(=S)N(CCC(=O)O)C2=O)cc1`: in test [1], binding was put at a Kd of 10 µM.

Consider `O=C(O)CCN1C(=O)/C(=C/c2ccccn2)SC1=S`, for which the dissociation constant (Kd) in test [1] is 51 µM.

In turn, `O=C(O)CCN1C(=O)/C(=C/c2cccc(Nc3ccccc3)c2)SC1=S` had a Kd in test [1] of 1.2 µM. For the same compound, the MIC50 in test [2] (PAO1, 4 h) was above 300 µg/mL. Further, the MBEC99.9 in test [3] is above 300 µg/mL. In test [4], the result was Active.

For the compound `CN(C)CCN1C(=O)C(=Cc2ccc(-c3ccccc3)cc2)SC1=S`, binding in test [1] was put at a Kd of 18 µM. In addition, the MIC50 result in test [2] is “inactive”. Besides, the MBEC99.9 in test [3] is above 300 µg/mL.

In turn, `N#Cc1cccc(-c2ccc(C=C3SC(=S)N(CCC(=O)O)C3=O)o2)c1` gave a dissociation constant Kd in test [1] of 13 µM.

As for `O=C(O)CCN1C(=O)/C(=C/c2ccc(Cl)cc2)SC1=S`, in test [1], the Kd came to 15 µM.

For `O=C(O)CCN1C(=O)/C(=C/c2ccc(Cc3ccccc3)cc2)SC1=S`, in test [1], binding was characterised by a dissociation constant (Kd) of 7 µM.

As to `O=C(O)CCN1C(=O)/C(=C/c2ccco2)SC1=S`, the Kd in test [1] was 38 µM.

With `COc1cccc(/C=C2\SC(=S)N(CCC(=O)O)C2=O)c1`, the Kd in test [1] amounted to 25 µM.

`O=C1/C(=C/c2ccc(O)c(O)c2)SC(=S)N1CCc1nnn[nH]1`: in test [1], the equilibrium dissociation constant (Kd) was 45 µM.

Regarding `COC(=O)c1ccc(-c2ccc(C=C3SC(=S)N(CCC(=O)O)C3=O)o2)cc1`, in test [1], the dissociation constant Kd worked out at 28 µM.

`O=C(O)CCN1C(=O)/C(=C/c2ccc(F)cc2)SC1=S` registered a Kd in test [1] of 44 µM.

As to `COC(=O)c1cccc(-c2ccc(C=C3SC(=S)N(CCC(=O)O)C3=O)o2)c1`, in test [1], the Kd amounted to 7.6 µM.

`O=C(O)CCN1C(=O)C(=Cc2ccc(-c3cccc(O)c3)o2)SC1=S`: in test [1], the Kd is 1.1 µM. Also, in test [2] (PAO1, 4 h), the MIC50 is above 300 µg/mL. In test [3], this compound registered an MBEC99.9 above 300 µg/mL. For the same compound, the result in test [4] was Active.

On to `O=C1/C(=C/c2ccccn2)SC(=S)N1CCc1nnn[nH]1`, for which the dissociation constant Kd in test [1] turned out to be 27 µM. For the same compound, the outcome in test [5] and in test [4] was Active.

Regarding `COC(=O)c1cc(-c2ccc(C=C3SC(=S)N(CCC(=O)O)C3=O)o2)ccc1N`, the Kd in test [1] came to 6.5 µM.

For the compound `NCCN1C(=O)/C(=C/c2ccc(-c3ccccc3)cc2)SC1=S`, binding in test [1] was put at a Kd of 43 µM. In addition, the MIC50 in test [2] (PAO1, 4 h) was above 300 µg/mL. In test [3], this compound had an MBEC99.9 above 300 µg/mL.

In the case of `O=C(O)CCN1C(=O)C(=Cc2cccc(-c3ccccc3)c2)SC1=S`, in test [1], the Kd is 20 µM.

`O=C1/C(=C/c2ccco2)SC(=S)N1CCc1nn[nH]n1` showed an equilibrium dissociation constant (Kd) in test [1] of 26 µM.

In turn, `COc1ccc(/C=C2\SC(=S)N(CCC(=O)O)C2=O)cc1` gave a Kd in test [1] of 23 µM.
